Experimental data: patent US5470852A, “Tetrahydroprotoberberine quaternary ammonium compounds useful in for treating arrhythmia” (priority 1991, dated 1995)
“Also recorded” adds a separate entry of the source.

Assays:
[1] = tested on: Langendorff's perfused rat hearts; experiment: Ischemia/reperfusion-induced arrhythmias, I13 in perfusate, Langendorff's perfused rat hearts; format: cell-based
Source text: FIG. 2. Influence of I13 in perfusate on the time course of reperfusion-induced arrhythmias in Langendorff's perfused rat hearts

dogs = experiment: Ouabain-induced arrhythmia in dogs; format: in vivo, dog; conditions: for Incidence of arrhythmia: I13 iv 3 mg/kg, lidocaine iv 12 mg/kg
Experimental: (iv, 12 mg/kg) on ouabain induced arrhythmia in dogs
(Ouabain administration for 30 min)

hypertrophic rat heart = experiment: Reperfusion-induced VF and VT in hypertrophic rat heart (L-thyroxine); format: in vivo
Experimental: 4. In the model of hypertrophic rat heart muscle disease caused by long term injections of L-thyroxine, high incidence of VF has been induced in vitro and in vivo when compared with the control after low perfusion-reperfusion or ischemia-reperfusion protocol. […] (shown in Tab 6)
Effect of I13 (100 mg/kg, ig administration at 1 hour before experiment)
on reperfusion-induced VF and VT in hypertrophic rat heart, a
myopathy induced by injecting L-thyroxin

[2] = tested on: guinea pig papillary muscles; experiment: Action potential of guinea pig papillary muscles under anoxia, high K+ and acidosis; format: cell-based
Source text: Effect of I13 (μ mol/L) on estimates of action potential of guinea
papillary muscles under anoxia, high K^+ and acidosis

[3] = tested on: pathological papillary muscles in rats (hypertrophy); experiment: Action potential in hypertrophic papillary muscles in rats (abdominal aorta occlusion); format: cell-based, rat
Source text: Effect of I13 (μ mol/L) on estimates of action potential induced in
normal and pathological papillary muscles in rats.

[4] = tested on: left ventricular activity in rabbits; experiment: Monophasic action potential (MAP) recorded from left ventricle in rabbits; format: in vivo, rabbit
Source text: The effectiveness of I13 in lengthening APD is confirmed by the influence on monophasic action potential (MAP) recorded from the left ventricular activity in rabbits.

[5] = 100 mg/kg ig 1 hour before, n=10
[6] = anoxia, high K+ and acidosis, I13 concentration not given
[7] = hypertrophy, n=5, I13 concentration not given

For `COc1ccc2c(c1OC)C[N+]1(Cc3ccc(Cl)cc3)CCc3cc4c(cc3C1C2)OCO4` (stereo not drawn) [Compound I13, 7-(4-chlorobenzyl)-5,8,13,13a-tetrahydroberberine chloride], the “protection against VT and VF induced by ischemia and reperfusion” value ([1]; 3 μmol/L) was “effective protection against the VT and VF”, the ke ([1]; 3 μmol/L (FIG. 2)) was 0.030 min⁻¹ and the ke ([1]; 10 μmol/L (FIG. 2)) was 0.020 min⁻¹. It also gave an Incidence of arrhythmia (dogs; 0 min (before administration)) of 97 ± 5%, an Incidence of arrhythmia (dogs; 5 min) of 83 ± 22% and an Incidence of arrhythmia (dogs; 10 min) of 72 ± 31%. It also gave an Incidence of arrhythmia (dogs; 15 min) of 59 ± 36%, an Incidence of arrhythmia (dogs; 20 min) of 45 ± 43% and an Incidence of arrhythmia (dogs; 25 min) of 40 ± 38%. The Incidence of arrhythmia (dogs; 30 min) was 27 ± 34%, the Incidence of arrhythmia (dogs; 35 min) was 26 ± 34% and the Incidence of arrhythmia (dogs; 40 min) was 14 ± 33%. For the same molecule, the Incidence of arrhythmia (dogs; 45 min) was 12 ± 31%, the Incidence of arrhythmia (dogs; 50 min) was 11 ± 28% and the Incidence of arrhythmia (dogs; 60 min) was 8 ± 20%. The “inhibition of ouabain-induced arrhythmias” value (dogs; dogs) was “markedly inhibited”, the “antiarrhythmic effect compared with lidocaine” value (dogs; i.v. gtt. 0.1 mg/kg/min for 30 mins vs lidocaine 0.4 mg/kg/min) was “the same antiarrhythmic effect as lidocaine” and the “anti-arrhythmic activity relative to lidocaine” value (dogs; ouabain, dogs) was 4 times. For the same molecule, the reoccurrence of arrhythmia (dogs; within 4 hour period) was “lack of reoccurrence of arrhythmia within a 4 hour period”, the “Duration of VF” value (hypertrophic rat heart; [5]) was 2.0 ± 3.0 min and the “Duration of VT” value (hypertrophic rat heart; [5]) was 0.4 ± 0.8 min. For the same molecule, the “Incidence of VF” value (hypertrophic rat heart; [5]) was 30%, the “Incidence of VT” value (hypertrophic rat heart; [5]) was 20% and the “inhibition of incidence of VF and VT” value (hypertrophic rat heart; p.o. 100 mg/kg one hour prior to ischemia) was “clearly inhibited the incidence of VF and VT”. The “Vmax under anoxia, high K+ and acidosis” value [2] was “lowered”, the RP ([2]; anoxia, high K+ and acidosis, I13 (μmol/L, concentration not given), n=8) was 85 ± 2 mv and the APA [2, 6] was 116 ± 2 mv. For the same molecule, the APD20 [2, 6] was 78 ± 13 ms, the APD50 [2, 6] was 156 ± 20 ms and the APD90 [2, 6] was 170 ± 21 ms. For the same molecule, the ERP [2, 6] was 186 ± 19 ms, the Vmax [2, 6] was 190 ± 40 v/s and the “influence on APD in hypertrophic myocardium” value [3] was “could not be further exaggerated; also recorded: no action on hypertrophic myocardium”. For the same molecule, the “Vmax in left ventricular hypertrophy” value ([3]; abdominal aorta occlusion, rats) was “completely inhibited”, the APA [3, 7] was 104 ± 4 mv and the APD20 [3, 7] was 8 ± 2 ms. The APD50 [3, 7] was 20 ± 4 ms, the APD90 [3, 7] was 45 ± 5 ms and the ERP [3, 7] was 45 ± 9 ms. For the same molecule, the RP [3, 7] was 81 ± 3 mv, the Vmax [3, 7] was 210 ± 40 v/s and the “lengthening of APD (MAP)” value [4] was “confirmed”.
